Among the data in ChEMBL document CHEMBL5230105, “Vitamin D and its analogs as anticancer and anti-inflammatory agents” (Eur J Med Chem, 2020) are half-life values, retold here.

The series in a line: Half life in mouse plasma. It counts as ADME, cell-free.

The structures appear in SMILES notation.

Consider `C[C@H](CC#CC(C)(C)O)[C@H]1CC[C@@H]2/C(=C/C=C3C[C@@H](O)C[C@H](O)C3)CCC[C@@]21C` [INECALCITOL], for which the half-life turned out to be 18.3 min.
